Test results published in patent publication US4443619A, “Chlorocitric acids” (Hoffmann-La Roche Inc., priority 1981, dated 1984).

Columns and labels:
[1] = Effect of stereoisomers of chlorocitric acid on food consumption in meal-fed rats (Example 14); type: in vivo, Charles River female rats; conditions: mean ± S.E.
Method: Animals were fasted 48 hr, then meal-fed the 70% glucose diet described by A. C. […] Following 5 to 12 days alimentation on the meal-feeding regimen, rats were dosed with the appropriate compounds orally by intubation 1/2 hr before the 3 hr meal. Food cups were weighed immediately after the meal. The control group consisted of 5 to 10 rats, while the experimental group consisted of 4 to 6 rats.

[2] = Food intake in dogs, pyramiding oral doses (Examples 26 and 27); type: in vivo, beagle dogs
Method: Twelve beagle dogs of both sexes weighing 7.6-12.2 kg were used for this test. The test compounds were contained in gelatin capsules for oral administration to two dogs of each sex. The animals were weighed and food consumption calculated daily excluding weekends throughout the test period. Each animal received 800 grams of diet daily consisting of 400 grams of Wayne pellet dog food mixed with 400 ml distilled water. The animals received pyramiding oral doses of the test compound over the three week period. On Monday and Tuesday of the first week the animals were weighed and food consumption was recorded (control). The animals received 3 mg/kg on Wednesday and 10 mg/kg on Friday of the first week. Doses of 30, 100 and 300 mg/kg were administered on Monday, Wednesday and Friday respectively during the second week. A final dose of 1000 mg/kg was administered on Monday of the third week.
Food intake was determined by the procedure by pyramiding doses described in Example 26.

[3] = Body weight gain in 8 hour meal-fed Zucker rats (Example 18); type: in vivo, lean (Fa/-) and obese (fa/fa); conditions: 6 days, mean ± S.E.
Method: (§1) Lean (Fa/-) Zucker rats and obese (fa/fa) Zucker rats of both sexes were individually housed in wire-bottomed cages in a temperature-regulated (22° C.) light-controlled room (12 hr light, 6 a.m. to 6 p.m. and 12 hr dark, 6 p.m. to 6 a.m.). The animals were fed a high carbohydrate (70% glucose) diet ad libitum for 13 days, dosed with the indicated compounds by oral intubation for 9 days and allowed to recover for 3 days. The animals were then meal fed from 8 a.m. to 4 p.m. for a period of 5 days, following which they were continued on the same meal schedule for an additional 6 days. During the 6-day period, the animals were administered the indicated compounds by oral intubation at 8 a.m. and 12 p.m. Body weight gain during the 6-day period was determined.

[4] = Anorectic effect in 8 hour meal-fed Zucker rats (Example 17); type: in vivo, lean (Fa/-) and obese (fa/fa)
Method: as §1, with “p.m.” for “p.m. to”, “Food cups were weighed immediately after” for “Body weight gain during”, “meal.” for “6-day period was determined.”

[5] = Food consumption of three diets in meal-fed rats (Example 15); type: in vivo, Charles River female rats; conditions: mean ± S.E.
Method: Charles River female rats (Charles River Breeding Laboratories, Wilmington, Mass.), weighing 170 to 200 g, were individually housed in wire-bottomed cages in a temperature-regulated (22° C.) light-controlled room (12 hr light, 6 a.m. to 6 p.m. and 12 hr dark, 6 p.m. to 6 a.m.). Animals were fasted 48 hr, then meal-fed the indicated diets from 8 to 11 a.m. Following 5 to 12 days alimentation on the meal-feeding regimen, rats were dosed with the appropriate compounds orally by intubation 1/2 hr before the 3 hr meal. Food cups were weighed immediately after the 1st, 2nd and 3rd hr of the meal. The control groups consisted of 8 to 10 rats and the experimental group considered of 5 to 6 rats.

Stomach Emptying = experiment: Effect on stomach emptying ([14C]glucose load) in rats (Example 25); type: in vivo; conditions: 0.33 mmoles/kg oral, 60 min after [14C]glucose load, mean ± S.E.
Method: Rats were trained to consume a 3 hr 70% glucose meal from 8 a.m. to 11 a.m. daily. On the experimental day, compounds were administered orally by intubation 30 min before a [^14 C]glucose load was given also by intubation. […] Sixty minutes later the rats were killed by decapitation; blood and stomachs were collected on ice.
Data are expressed as follows: dpm×10^3 per ml of serum and dpm×10^3 per stomach.

[6] = Anorectic activities of stereoisomers: 3-day food consumption and body weight gain in meal-fed rats; type: in vivo, Charles River female rats; conditions: 1.32 mmoles/kg oral, 3 days, mean ± S.E.
Method: Charles River female rats (Charles River Breeding Laboratories, Wilmington, Mass.), weighing 196 to 210 g, were individually housed in wire-bottomed cages in a temperature-regulated (22° C.) light-controlled room (12 hr light, 6 a.m. to 6 p.m. and 12 hr dark, 6 p.m. to 6 a.m.). Animals were fasted 48 hr, then meal-fed a 70% glucose diet from 8 to 11 a.m. Following 5 to 12 days alimentation on the meal-feeding regimen, rats were dosed with the appropriate compounds orally by intubation 1/2 hr before the 3 hr meal for 3 days. The total food consumption and body weight gained during the 3 day period were determined. The control group consisted of 16 rats, while the experimental group consists of 8 rats.

[7] = Anorectic activity, body weight and carcass analysis in mammals (summary statements); type: in vivo; conditions: acute meal-fed assay utilizing three diets and pyramiding dose studies; compared with hydroxycitric acid
[8] = 2.63 mmoles/kg oral, control 13.5 ± 0.8
[9] = test day 20, no dose, (±) one animal, (+) and (-) two animals
[10] = 20% Corn Oil, 0.33 mmoles (75 mg)/kg oral
[11] = 20% Corn Oil, 0.66 mmoles (150 mg)/kg oral
[12] = 70% Glucose, 0.33 mmoles (75 mg)/kg oral
[13] = 70% Glucose, 0.66 mmoles (150 mg)/kg oral
[14] = Chow, 0.33 mmoles (75 mg)/kg oral
[15] = Chow, 0.66 mmoles (150 mg)/kg oral

## O=C(O)C[C@](O)(C(=O)O)[C@H](Cl)C(=O)O [(+)-threo-Chlorocitric acid, (+)-threo-chlorocitric acid]
[1]; 0.66 mmoles/kg oral, control 8.2 ± 1.2
  Food consumption: 6.8 ± 1.0 g
[1]; [8]
  Food consumption: 5.1 ± 1.2 g
[2]; [9]
  Food Consumption, % of control: 96 % of control
  Food consumption: 583 ± 17 g
[2]; test days -2, -1, before dosing (control period)
  Food consumption: 610 ± 43 g
[3]; Fa/- lean, 0.66 mmoles/kg b.i.d. oral
  Body Weight Gain: 2.5 ± 2.3 g
[3]; fa/fa obese, 0.66 mmoles/kg b.i.d. oral
  Body Weight Gain: -3.6 ± 2.0 g
[4]; Fa/- lean, 0.66 mmoles/kg oral, treatment day 1
  Daily Food Consumption: 10.1 ± 0.8 g
[4]; Fa/- lean, 0.66 mmoles/kg oral, treatment day 2
  Daily Food Consumption: 8.7 ± 0.3 g
[4]; Fa/- lean, 0.66 mmoles/kg oral, treatment day 3
  Daily Food Consumption: 11.7 ± 0.7 g
[4]; Fa/- lean, 0.66 mmoles/kg oral, treatment day 4
  Daily Food Consumption: 9.8 ± 0.9 g
[4]; Fa/- lean, 0.66 mmoles/kg oral, treatment day 5
  Daily Food Consumption: 12.8 ± 0.9 g
[4]; Fa/- lean, 0.66 mmoles/kg oral, treatment day 6
  Daily Food Consumption: 11.4 ± 0.7 g
[4]; Fa/- lean, 0.66 mmoles/kg, day 0 (pretreatment)
  Daily Food Consumption: 10.6 ± 0.8 g
[4]; fa/fa obese, 0.66 mmoles/kg oral, treatment day 1
  Daily Food Consumption: 10.3 ± 0.4 g
[4]; fa/fa obese, 0.66 mmoles/kg oral, treatment day 2
  Daily Food Consumption: 8.8 ± 0.8 g
[4]; fa/fa obese, 0.66 mmoles/kg oral, treatment day 3
  Daily Food Consumption: 11.3 ± 1.0 g
[4]; fa/fa obese, 0.66 mmoles/kg oral, treatment day 4
  Daily Food Consumption: 11.6 ± 1.2 g
[4]; fa/fa obese, 0.66 mmoles/kg oral, treatment day 5
  Daily Food Consumption: 12.3 ± 1.5 g
[4]; fa/fa obese, 0.66 mmoles/kg oral, treatment day 6
  Daily Food Consumption: 14.2 ± 1.8 g
[4]; fa/fa obese, 0.66 mmoles/kg, day 0 (pretreatment)
  Daily Food Consumption: 14.3 ± 1.4 g
[5]; [10]
  Food intake, 1st hr: 7.1 ± 1.2 g
  Food intake, 2nd hr: 3.9 ± 0.5 g
  Food intake, 3rd hr: 3.2 ± 0.6 g
  Food intake, Total: 14.2 ± 1.2 g
[5]; [11]
  Food intake, 1st hr: 6.7 ± 1.6 g
  Food intake, 2nd hr: 3.1 ± 0.6 g
  Food intake, 3rd hr: 2.2 ± 0.7 g
  Food intake, Total: 12.3 ± 1.6 g
[5]; [12]
  Food intake, 1st hr: 6.2 ± 1.8 g
  Food intake, 2nd hr: 2.4 ± 0.8 g
  Food intake, 3rd hr: 2.4 ± 0.5 g
  Food intake, Total: 11.0 ± 2.3 g
[5]; [13]
  Food intake, 1st hr: 3.2 ± 0.5 g
  Food intake, 2nd hr: 5.1 ± 1.3 g
  Food intake, 3rd hr: 1.7 ± 0.3 g
  Food intake, Total: 10.1 ± 1.7 g
[5]; [14]
  Food intake, 1st hr: 7.4 ± 0.6 g
  Food intake, 2nd hr: 2.6 ± 0.7 g
  Food intake, 3rd hr: 2.2 ± 0.5 g
  Food intake, Total: 12.2 ± 0.4 g
[5]; [15]
  Food intake, 1st hr: 7.7 ± 0.5 g
  Food intake, 2nd hr: 3.9 ± 0.5 g
  Food intake, 3rd hr: 1.8 ± 0.9 g
  Food intake, Total: 13.4 ± 0.9 g
Stomach Emptying
  Serum, total per ml: 3.4 ± 0.6 dpm × 10^3
  Stomach Contents, total per stomach: 1946 ± 361 dpm × 10^3
[6]
  3-Day Body Weight Gain: -3.5 ± 1.2 g
  3-Day Food Consumption: 26.5 ± 1.3 g

## O=C(O)CC(O)(CC(=O)O)C(=O)O [Citric Acid]
[1]; [8]
  Food consumption: 12.7 ± 1.7 g
[3]; Fa/- lean, 1.32 mmoles/kg b.i.d. oral
  Body Weight Gain: 2.8 ± 3.7 g
[3]; fa/fa obese, 1.32 mmoles/kg b.i.d. oral
  Body Weight Gain: 3.4 ± 1.6 g
[4]; Fa/- lean, 1.32 mmoles/kg oral, treatment day 1
  Daily Food Consumption: 10.6 ± 1.2 g
[4]; Fa/- lean, 1.32 mmoles/kg oral, treatment day 2
  Daily Food Consumption: 10.0 ± 1.2 g
[4]; Fa/- lean, 1.32 mmoles/kg oral, treatment day 3
  Daily Food Consumption: 12.7 ± 1.0 g
[4]; Fa/- lean, 1.32 mmoles/kg oral, treatment day 4
  Daily Food Consumption: 11.9 ± 0.7 g
[4]; Fa/- lean, 1.32 mmoles/kg oral, treatment day 5
  Daily Food Consumption: 12.6 ± 0.8 g
[4]; Fa/- lean, 1.32 mmoles/kg oral, treatment day 6
  Daily Food Consumption: 13.1 ± 0.9 g
[4]; Fa/- lean, 1.32 mmoles/kg, day 0 (pretreatment)
  Daily Food Consumption: 11.0 ± 0.8 g
[4]; fa/fa obese, 1.32 mmoles/kg oral, treatment day 1
  Daily Food Consumption: 11.4 ± 0.8 g
[4]; fa/fa obese, 1.32 mmoles/kg oral, treatment day 2
  Daily Food Consumption: 13.8 ± 1.2 g
[4]; fa/fa obese, 1.32 mmoles/kg oral, treatment day 3
  Daily Food Consumption: 16.5 ± 1.0 g
[4]; fa/fa obese, 1.32 mmoles/kg oral, treatment day 4
  Daily Food Consumption: 14.8 ± 0.9 g
[4]; fa/fa obese, 1.32 mmoles/kg oral, treatment day 5
  Daily Food Consumption: 15.7 g
[4]; fa/fa obese, 1.32 mmoles/kg oral, treatment day 6
  Daily Food Consumption: 16.0 ± 1.0 g
[4]; fa/fa obese, 1.32 mmoles/kg, day 0 (pretreatment)
  Daily Food Consumption: 13.4 ± 0.8 g
[7]
  anorectic activity as measured by reduction in food consumption: inactive
